Test results from patent US3944498A, “Germicidal detergent containing a thienyliodonium salt” (The Dow Chemical Company, priority 1973, dated 1976).

Tests used:
Swiss mice (Cox strain) = experiment: Oral median lethal dose in Swiss mice (Cox strain); type: in vivo
Description: (§1) Five groups of mice, each consisting of 15 males and 15 females, were given ClPhThICl in an aqueous 0.5 percent METHOCEL hydroxypropyl methylcellulose (4000 cps.) suspension at a concentration of 300 mg/ml. The compound was administered as a single oral dose at 0.2 logarithmic dose intervals (708, 1120, 1780, 2820, 4450 mg/kg) and the following mortality experience was noted:
(§2) The percent of total mortalities occurring was 16.0, 66.6, 81.5, and 91.3 at 6, 24, 48 and 72 hours post-treatment, respectively. The last death occurred in a female (1120 mg/kg group) on day 14 of the study.

[1] = Oral median lethal dose in Swiss mice (Cox strain); type: in vivo; conditions: mouse, in vivo, po; for LD50 at 168 h: 7 days; for LD50 at 336 h: 14 days
Description: as §1, §2

[2] = male mice, 95% confidence limits 1353-2288 mg/kg

Structure (SMILES): Clc1ccc([I+]c2cccs2)cc1.[Cl-] [4-Chlorophenyl-2-thienyliodonium chloride]
- No. Dead (Swiss mice (Cox strain); 708 mg/kg oral, 7 Days, females): 1/15
- No. Dead (Swiss mice (Cox strain); 708 mg/kg oral, 7 Days, males): 0/15
- No. Dead (Swiss mice (Cox strain); 708 mg/kg oral, 14 Days, females): 2/15
- No. Dead (Swiss mice (Cox strain); 708 mg/kg oral, 14 Days, males): 1/15
- No. Dead (Swiss mice (Cox strain); 708 mg/kg oral, 24 Hours, females): 0/15
- No. Dead (Swiss mice (Cox strain); 708 mg/kg oral, 24 Hours, males): 0/15
- No. Dead (Swiss mice (Cox strain); 1120 mg/kg oral, 7 Days, females): 1/15
- No. Dead (Swiss mice (Cox strain); 1120 mg/kg oral, 7 Days, males): 1/15
- No. Dead (Swiss mice (Cox strain); 1120 mg/kg oral, 14 Days, females): 2/15
- No. Dead (Swiss mice (Cox strain); 1120 mg/kg oral, 14 Days, males): 1/15
- No. Dead (Swiss mice (Cox strain); 1120 mg/kg oral, 24 Hours, females): 0/15
- No. Dead (Swiss mice (Cox strain); 1120 mg/kg oral, 24 Hours, males): 0/15
- No. Dead (Swiss mice (Cox strain); 1780 mg/kg oral, 7 Days, females): 8/15
- No. Dead (Swiss mice (Cox strain); 1780 mg/kg oral, 7 Days, males): 8/15
- No. Dead (Swiss mice (Cox strain); 1780 mg/kg oral, 14 Days, females): 8/15
- No. Dead (Swiss mice (Cox strain); 1780 mg/kg oral, 14 Days, males): 9/15
- No. Dead (Swiss mice (Cox strain); 1780 mg/kg oral, 24 Hours, females): 4/15
- No. Dead (Swiss mice (Cox strain); 1780 mg/kg oral, 24 Hours, males): 3/15
- No. Dead (Swiss mice (Cox strain); 2820 mg/kg oral, 7 Days, females): 14/15
- No. Dead (Swiss mice (Cox strain); 2820 mg/kg oral, 7 Days, males): 14/15
- No. Dead (Swiss mice (Cox strain); 2820 mg/kg oral, 14 Days, females): 14/15
- No. Dead (Swiss mice (Cox strain); 2820 mg/kg oral, 14 Days, males): 14/15
- No. Dead (Swiss mice (Cox strain); 2820 mg/kg oral, 24 Hours, females): 8/15
- No. Dead (Swiss mice (Cox strain); 2820 mg/kg oral, 24 Hours, males): 11/15
- No. Dead (Swiss mice (Cox strain); 4450 mg/kg oral, 7 Days, females): 15/15
- No. Dead (Swiss mice (Cox strain); 4450 mg/kg oral, 7 Days, males): 15/15
- No. Dead (Swiss mice (Cox strain); 4450 mg/kg oral, 14 Days, females): 15/15
- No. Dead (Swiss mice (Cox strain); 4450 mg/kg oral, 14 Days, males): 15/15
- No. Dead (Swiss mice (Cox strain); 4450 mg/kg oral, 24 Hours, females): 13/15
- No. Dead (Swiss mice (Cox strain); 4450 mg/kg oral, 24 Hours, males): 15/15
- percent of total mortalities occurring (Swiss mice (Cox strain); 6 hours post-treatment): 16.0%
- percent of total mortalities occurring (Swiss mice (Cox strain); 24 hours post-treatment): 66.6%
- percent of total mortalities occurring (Swiss mice (Cox strain); 48 hours post-treatment): 81.5%
- percent of total mortalities occurring (Swiss mice (Cox strain); 72 hours post-treatment): 91.3%
- time of last death (Swiss mice (Cox strain); female, 1120 mg/kg group): 14 days
- LD50 at 24 h ([1]; female mice, 95% confidence limits 2300-3591 mg/kg): 2700 mg/kg
- LD50 at 24 h ([1]; male mice, 95% confidence limits 1916-2760 mg/kg): 2300 mg/kg
- LD50 at 168 h ([1]; female mice, 95% confidence limits 1172-2455 mg/kg): 1700 mg/kg
- LD50 at 168 h [1, 2]: 1760 mg/kg
- LD50 at 336 h ([1]; female mice, 95% confidence limits 1264-1975 mg/kg): 1580 mg/kg
- LD50 at 336 h [1, 2]: 1760 mg/kg
